Publication PMC12013366, “In vitro evaluation of the immunogenic potential of gramicidin S and its photocontrolled analogues” (RSC Medicinal Chemistry, 2025)
Like-named read-outs stand apart in the source and are kept apart here. Non-standard residues stand in square brackets, D forms with d. Residues, ends and D or L forms follow the SMILES beside them. Orn = NCCC[C@H](N)C(=O)O

Assays:
[1] = Cytotoxicity, two-dimensional (monolayer) assay; format: cell-based; conditions: human, HEK-293 cells, HEK-293 monolayer, necrotic cells by PI/Hoechst 33342 imaging, ± SEM, n=4, read-out: IC50, cytotoxic activity, two-dimensional assay; for IC50 at 10 min: 10 mins incubation; for IC50 at 1 h: 1 h incubation; for IC50 at 24 h: 24 hrs incubation; for IC50 at 72 h: 72 hrs incubation
Protocol: Screening of the cytotoxic activity of compounds in a two-dimensional (2D) format was designed in accordance with the previously obtained data[32] for the HeLa cell line. The cytotoxic action of peptides was quantified in the 96-well plate format at four time points after adding compounds – at 10 min, 1 h, 24 h and 72 h. […] The selected IC50 values for different incubation times are exemplified in Fig. 2.
(§1) Essential experimental details have been previously published by us.[79]
The cells were maintained in a culture till 70–80% confluence was reached and then seeded in a 96-well black-wall transparent-bottom plate (6055302, Revvity) with 200 μL of appropriate medium per well. The seeding density has been previously determined in the optimization experiments for each cell line: 3500 cells per well for 4T1; 20 000 cells per well for HEK-293; 20 000 cells per well for HeLa; 25 000 cells per well for HepG2; 8000 cells per well for LLC; 15 000 cells per well for MDA-MB-231. After 24 h incubation at 37 °C, the medium was removed and 100 μL of fresh medium was added. Two-fold serial dilution of compounds (256–0.5 μM, 11 points for closed forms of photoswitchable peptides; 128–0.25 μM, 11 points for open forms; 64–0.5, 8 points for GS) in the medium was prepared and dispensed in 100 μL per well. The plates were incubated with compounds for 10 min, 1 h, 24 h and 72 h. The staining solution consisting of 25 μM of Hoechst 33342 (62249, Thermo Fisher), 5 μM of propidium iodide (J66764-MC, Thermo Fisher) or ethidium homodimer-1 (E1169, Thermo Fisher), with 10% FBS in DPBS (21600044, Thermo Fisher) was prepared and added to wells in a volume of 50 μL for 20 min. Fluorescence images were acquired using an INCell Analyzer 6500 HS automatic imaging system with 20× objective lens (NA = 0.45) and 16 fields of view (FOV) per well. The numerical data were obtained using INCarta 1.13 and then analysed using GraphPad Prism 10.

[2] = Cytotoxicity, three-dimensional (spheroid) assay; format: cell-based; conditions: human, HEK-293 spheroids, calcein-AM/PI/Hoechst 33342 confocal imaging, Table S3 (with LMB033), ± SEM, n=5, read-out: IC50, cytotoxic activity, three-dimensional (spheroid) assay
From the text: (§2) For the experiments with the three-dimensional (3D) cultures, we used a 384-well plate format and applied the protocol introduced by Sirenko et al.,[35] with a few modifications. First, we used the ultra-low adhesion plates to ensure reproducible spheroid formation. Second, we decided to co-stain the cells with calcein-AM to obtain more information on the processes occurring in spheroids upon the addition of cytolytic peptides. Calcein-AM stains metabolically active cells and helps to identify the fraction of necrotic cells that is essential for the accurate determination of the IC50 values (Fig. 3). Three time points of incubation of spheroids with the peptides (10 min, 24 h and 72 h) were chosen for the experiments. The IC50 values and the closed/open isomer activity ratios (Table 2) were calculated, as in the monolayer cell culture experiments.
as §1
(§3) The cells were maintained identically to a 2D cell culture protocol. After counting, the cells were seeded in 50 μL of medium in an ultralow attachment U-bottom black-wall 384-well plate (3830, Corning). The seeding density was chosen to obtain spheroids after 48 h of incubation that are compact enough to fit into 20× objective field of view (<800–1000 μm in diameter) after incubation with compounds. We seeded 2000 cells per well for 4T1 and 1000 cells per well for HEK-293, HeLa, HepG2, LLC and MDA-MB-231. After seeding, the plate was centrifuged at 40 g for 30 s and additionally shaken at 250 rpm for 1 min to shake all the cells off the walls of a well. After 48 h, the compounds were dispensed in 20 μL of medium (500, 100, 50, 5 and 1 μM for closed peptide photoforms; 100, 50, 10, 1 and 0.5 μM for open photoforms and GS). At 10 min, 24 h and 72 h post addition of compounds, the staining solution consisting of 112.5 μM of Hoechst 33342, 4.5 μM of calcein-AM (C1430, Thermo Fisher), 13.5 μM of propidium iodide and 10% of FBS in DPBS was added in 20 μL for 2 h. The fluorescent imaging was conducted in the confocal mode with a 20× objective lens and z-stack of 12–15 images with a 10 μm step. The collected data were processed using INCarta 1.13 and analyzed using GraphPad Prism 10.

HeLa spheroids = assay: Cytotoxicity, three-dimensional (spheroid) assay; format: cell-based; conditions: human
From the text: as §2, §1, §3

[3] = tested on: HMGB1 released by HepG2 cells; assay: HMGB1 release, bioluminescence immunoassay (Lumit HMGB1) in the supernatant; format: cell-based, human; conditions: 64 μM, n=3
Protocol: HMGB1 was quantified (using a calibration curve) by a bioluminescence assay in the supernatant.
For this, 25 000 cells per well of HepG2 were seeded in 200 μL of complete DMEM in a 96-well black-wall transparent-bottom plate (655090, Greiner). After 24 h, the medium was aspired, and 100 μL of DPBS was added for rinsing and then aspired. Then, 100 μL of Leibovitz L-15 medium that contained 10% FBS was added. After that, 2× concentrated solutions of tested compounds (64 and 8 μM, triplicates for each time point) were prepared in the same Leibovitz L-15 medium in an intermediate plate and dispensed in a volume of 100 μL to the cell-containing plate. The calibration curve was constructed using a HMGB1 stock solution (1000–0.24 ng mL^−1, 4-fold dilution, 7 points, n = 2) from Lumit HMGB1 (Human/Mouse) immunoassay kit (W6110, Promega) and dispensed in a 96-well white-wall transparent-bottom working plate (353377, Falcon). After 30 min, 3 h and 24 h, aliquots from the intermediate plate (tested compounds) were transferred to the working plate. […] The plate was shaken for 1 min and incubated for 1 h at room temperature. […] The luminescence signal was collected throughout the visible range (360–700 nm). The data were analyzed using GraphPad Prism 10.

[4] = 2D monolayer, Table S1 series (with LMB033)
[5] = monolayer (2D), Table S2 series (with LMB002)

CC(C)C[C@@H]1NC(=O)[C@H](CCCN)NC(=O)[C@H](C(C)C)NC(=O)[C@@H]2CCCN2C(=O)[C@@H](Cc2ccccc2)NC(=O)[C@H](CC(C)C)NC(=O)[C@H](CCCN)NC(=O)[C@H](C(C)C)NC(=O)[C@@H]2CCCN2C(=O)[C@@H](Cc2ccccc2)NC1=O [Gramicidin S, gramicidin S] (cyclo(V[Orn]L[dF]PV[Orn]L[dF]P))
IC50 at 10 min [1, 4]: 12.9 ± 0.4 µM | IC50 at 1 h [1, 4]: 11.6 ± 0.1 µM | IC50 at 24 h [1, 4]: 8.3 ± 0.2 µM | IC50 at 72 h [1, 4]: 8.4 ± 0.7 µM | IC50 at 10 min [1, 5]: 15.4 ± 0.1 µM | IC50 at 1 h [1, 5]: 12.7 ± 0.2 µM | IC50 at 24 h [1, 5]: 10.4 ± 0.1 µM | IC50 at 72 h [1, 5]: 11.1 ± 0.1 µM | IC50 at 10 min ([2]; 10 mins incubation): 14.3 ± 11.6 µM | IC50 at 24 h ([2]; 24 hrs incubation): 12.9 ± 1.1 µM | IC50 at 72 h ([2]; 72 hrs incubation): 9 ± 1.1 µM | IC50 (HeLa spheroids; 10 min): 2.9 ± 1.5 µM | IC50 (HeLa spheroids; 24 h): 2.9 ± 1.6 µM | HMGB1 detected in the supernatant ([3]; 30 min post-treatment, interpolated from calibration curve): 50 ng/mL | HMGB1 detected in the supernatant ([3]; at 3 h, constant up to 24 h): 10 ng/mL
